One assay deals with Human alphaherpesvirus 2. The experiment in a line: Concentration required for inhibition of proliferation of herpes simplex virus type II at 0.07 ug/mL. It counts as functional.
Assay [1] is described as follows: Concentration required for inhibition of proliferation of herpes simplex virus type I at 0.07 ug/mL. The following applies: Human alphaherpesvirus 1. It counts as functional.

Broadly, the inhibition is the share of the control response that was lost under treatment. Take `O=c1[nH]c(=O)n(C2COC(CO)C(O)C2)cc1I` (configuration not stated): the inhibition at 0.07 µg/mL (in the assay with Human alphaherpesvirus 2; in assay [1]) was 50% in each case.

Source of the values: ChEMBL document CHEMBL1126485, “Synthesis of nucleoside analogues with a 1,5-anhydrohexitol moiety” (1993).
